Results published in US20110130355A1, “USE OF SOPHORICOSIDE IN THE MANUFACTURE OF MEDICAMENTS” (priority 2008, published 2011).
Marks after values point to notes of the source that are not given here.

Assays:
uterus = experiment: Wet weights of uteri of ovariectomized rats; format: in vivo, SD rats; conditions: OVX rats, 11 weeks
Description: OVX group and the intervention groups: The rats were anesthetized by intraperitoneal injection of 1% pentobarbital sodium at 5 ml/kg. After the onset of anesthesia, the rats were positioned face-down and dehaired at the third lumbar vertebra below the costal arch. The skin was sanitized by benzalkonium bromide and incised by about 1 cm. The subcutaneous tissue and the fascia were incised, and the muscle was bluntly separated. The peritoneum was carefully cut open. White fat was lifted carefully by using tissue forceps inserted to the abdominal cavity through the incision. The fat was gently turned over to expose the quincuncial ovary, which was then ligated by sterile 1 silk thread. The ovary was separated by cutting the oviduct by ophthalmic scissors. After hemostasis by compression, the fat was returned into the abdominal cavity. Subsequently, an incision was made on the opposite side and the same procedures were carried out to excise the ovary on the opposite side. The peritoneum, the fascia, the subcutaneous tissue, and the skin were sutured one by one. The incisions were sanitized.
The vehicle was 1% sodium carboxymethylcellulose (CMC-Na). The sham group and OVX group were administered the vehicle by gavage.
Intervention groups were administered the following formulations of active agents dissolved in the vehicle: […]
The rats were sacrificed by cervical dislocation after 11 weeks. Uteri were removed, weighted, and fixed in 4% paraformaldehyde (PFA). The whole right knee joints were removed and fixed in 4% PFA.
The rats were weighted, and then sacrificed. The uteri were removed from the rats and determined for wet weights.
Statistical analysis of variance was performed. The variance of the wet weights internal to the SHAM group was high, possibly attributing to different stages of menstrual cycle. In all groups, the body weights before the treatment were not statistically different from those after the treatment. The wet weights of uteri obtained from the ovariectomized groups were statistically different from those obtained from the SHAM group (p<0.01), indicating a successful ovariectomy.

[1] = test system: carrageenan-induced edema; conditions: in vivo; cited from earlier work
ER-α = experiment: Immunohistochemical staining of the estrogen receptor of articular chondrocytes, percentage of positive cells; format: in vivo, SD rats; conditions: OVX rats, 11 weeks; for ER-α positive cells in the articular cartilage, micrograph in words: FIG. 7; for positive ratio for ER-α expression in the articular chondrocytes, Total: whole knee joint
Description: 2) Elimination of endogenous peroxidases: The sections were treated with 3% H2O2-methanol for 10 minutes and washed by PBS for 5 minutes×3;
3) Blocking of Antigen: The sections were treated with 0.3% bovine serum albumin (BSA) for 30 minutes;
The sections were incubated at 4° C. overnight and then washed by PBS for 5 minutes×3;
5) Secondary antibody: After the addition of the biotinylated secondary antibody (1:200) the sections were incubated at 37° C. for 30 minutes and then washed by PBS for 5 minutes×3;
6) Addition of SABC (Streptavidin Biotin Complex): After the addition of SABC (1:300) the sections were incubated at 37° C. for 30 minutes and then washed by PBS for 5 minutes×3;
7) Visualization: 75 μl of 3,3′-diaminobenzidine (DAB) was added per section. After incubation for 3-6 minutes, the sections were observed by microscopy;
The average of the percentages for the four regions was regarded as the total positive cell percentage for the indicated knee joint, and the average of the percentages obtained from two persons was regarded as the final experimental result.
The positive cell percentage=number of the positive chondrocytes in the field/total number of the chondrocytes in the field×100%.

articular chondrocytes = experiment: Apoptotic profiles of articular chondrocytes (TUNEL staining); format: in vivo, SD rats; conditions: OVX rats, 11 weeks; for apoptotic cells in articular cartilage, in words: FIG. 10; for Apoptotic index of the articular chondrocytes, total: whole knee joint
Description: When a cell is undergoing apoptosis, the chromosomal DNAs are fragmented in a gradual and staged manner. The chromosomal DNAs are firstly degraded into large fragments of 50-300 kb by endogenous nucleases. Next, about 30% of the chromosomal DNAs were randomly cleaved at internucleosomal regions by the Ca^2+ and Mg^2+ dependent endonucleases to form multimers of 180˜200 bp nucleosomal DNAs. The free 3′-ends resulted from DNA double-strand break or DNA single chain gapping can be labeled by adding a derivative formed by the deoxyribonucleotide and fluorescein, peroxidase, alkaline phosphatase by the terminal deoxynucleotidyl transferase. The apoptotic cells can be detected accordingly. Such methods are generally referred to as terminal deoxynucleotidyl transferase-mediated nick end labeling.
1) Section Dewaxing: The sections were placed in an incubator at 65° C. for 3 hours, and then immersed in xylene for 5 minutes×2, in 100% ethanol for 10 min×2, in 95% ethanol for 5 min×2, in 85% ethanol for 5 minutes, in 75% ethanol for 5 minutes, and in PBS for 5 minutes×2;
2) Pre-treatment: Each of the sections was incubated with 60 μl fresh protease K (20 μg/ml) in a humidified chamber at 37° C. for 20 minutes; and then rinsed with PBS for 2 minutes×2;
3) Elimination of endogenous peroxidases: The sections were treated with 3% H2O2-methanol for 5 minutes and washed by PBS for 5 minutes×2;
4) Equilibration: Each of the sections was rinsed with 75 μl equilibration solution for 10 seconds and decanted, and the residual water was sucked off;
5) Addition of TdT enzyme: […] working solution was added to each of the sections immediately with the […] control untreated, and the sections were placed in a humidified chamber at 37° C. for 1 hour;
6) Quenching: The sections were gently shook in the quenching solution for 15 minutes, and washed by PBS for 3 minutes×3, and decanted gently;
7) Visualization: Each of the sections was incubated with 65 μl antidigoxin-perioxidase in a humidified chamber at room temperature for 30 minutes, and washed by PBS for 2 minutes×4. After incubation with sufficient amount of the perioxidase substrate (75 μl) for 3˜6 minutes, each of the sections was visualized by microscopy;
8) Counterstaining: The sections were rinsed with flowing water for 3 minutes, and subsequently stained by hematoxylin for 10 seconds, then rinsed with flowing water for 10 minutes, immersed in 95% ethanol for 10 minutes×2, immersed in 100% ethanol for 10 minutes×2; placed in xylene for 10 minutes×2; and finally mounted in neutral resin.
The average of the indices for the four regions was regarded as the total apoptotic index for the indicated knee joint, and the average of the indices obtained from two persons was regarded as the final experimental result.
The apoptotic index=number of positive cells in the field/total number of chondrocytes in the field×100%.

O=c1c(-c2ccc(O[C@@H]3O[C@H](CO)[C@@H](O)[C@H](O)[C@H]3O)cc2)coc2cc(O)cc(O)c12 [HDA, 3-[4-(β-D-glucopyranosyl)-benzyl]5,7-dihydro-4H-1-benzopyran-4-one (4′,5,7-trihydroxylisoflavone-4′-D-glucoside)]
Wet weight of uterus (uterus; sophoricoside 10 mg/kg/day): 0.143 ± 0.008 g
Wet weight of uterus (uterus; sophoricoside 20 mg/kg/day): 0.129 ± 0.008 g
Wet weight of uterus (uterus; sophoricoside 40 mg/kg/day): 0.162 ± 0.013 g
Wet weight of uterus (uterus; sophoricoside 80 mg/kg/day): 0.166 ± 0.017 g
carrageenan-induced edema [1]: inhibit
ER-α positive cells in the articular cartilage, micrograph in words (ER-α; sophoricoside 10 mg/kg/day): ER-α positive cells within the superficial layer of articular cartilage were much less
ER-α positive cells in the articular cartilage, micrograph in words (ER-α; sophoricoside 20 mg/kg/day): ER-α positive cells within the superficial layer of articular cartilage were much less
ER-α positive cells in the articular cartilage, micrograph in words (ER-α; sophoricoside 80 mg/kg/day): more than the OVX group and similar to normal articular cartilage
positive ratio for ER-α expression in the articular chondrocytes, Total (ER-α; sophoricoside 10 mg/kg/day): 49.520 ± 1.815^□□ %
positive ratio for ER-α expression in the articular chondrocytes, Total (ER-α; sophoricoside 20 mg/kg/day): 58.624 ± 1.707**^□□ %
positive ratio for ER-α expression in the articular chondrocytes, Total (ER-α; sophoricoside 40 mg/kg/day): 65.074 ± 1.306**^□□ %
positive ratio for ER-α expression in the articular chondrocytes, Total (ER-α; sophoricoside 80 mg/kg/day): 77.730 ± 1.125**^□□ %
apoptotic cells in articular cartilage, in words (articular chondrocytes; sophoricoside 20 mg/kg/day): The interventions other than HAD20 decreased the apoptotic chondrocytes
apoptotic cells in articular cartilage, in words (articular chondrocytes; sophoricoside 40 mg/kg/day): weaker
apoptotic cells in articular cartilage, in words (articular chondrocytes; sophoricoside 80 mg/kg/day): less than OVX group and similar to normal articular cartilage
Apoptotic index of the articular chondrocytes, lateral femur (articular chondrocytes; sophoricoside 20 mg/kg/day): 10.269 ± 1.313^□ %
Apoptotic index of the articular chondrocytes, lateral tibia (articular chondrocytes; sophoricoside 20 mg/kg/day): 12.571 ± 1.226^□□ %
Apoptotic index of the articular chondrocytes, medial femur (articular chondrocytes; sophoricoside 20 mg/kg/day): 14.779 ± 1.819^□□ %
Apoptotic index of the articular chondrocytes, medial tibia (articular chondrocytes; sophoricoside 20 mg/kg/day): 13.125 ± 1.891^□□ %
Apoptotic index of the articular chondrocytes, lateral femur (articular chondrocytes; sophoricoside 40 mg/kg/day): 7.991 ± 0.943%
Apoptotic index of the articular chondrocytes, lateral tibia (articular chondrocytes; sophoricoside 40 mg/kg/day): 7.665 ± 0.976**^□ %
Apoptotic index of the articular chondrocytes, medial femur (articular chondrocytes; sophoricoside 40 mg/kg/day): 10.779 ± 1.159%
Apoptotic index of the articular chondrocytes, medial tibia (articular chondrocytes; sophoricoside 40 mg/kg/day): 9.581 ± 0.760*^□ %
Apoptotic index of the articular chondrocytes, lateral femur (articular chondrocytes; sophoricoside 80 mg/kg/day): 5.253 ± 0.923 %
Apoptotic index of the articular chondrocytes, lateral tibia (articular chondrocytes; sophoricoside 80 mg/kg/day): 5.509 ± 0.847 %
Apoptotic index of the articular chondrocytes, medial femur (articular chondrocytes; sophoricoside 80 mg/kg/day): 7.410 ± 0.872 %
Apoptotic index of the articular chondrocytes, medial tibia (articular chondrocytes; sophoricoside 80 mg/kg/day): 6.558 ± 1.121 %
Apoptotic index of the articular chondrocytes, total (articular chondrocytes; sophoricoside 20 mg/kg/day): 12.711 ± 1.178^□□ %
Apoptotic index of the articular chondrocytes, total (articular chondrocytes; sophoricoside 40 mg/kg/day): 9.004 ± 0.588**^□ %
Apoptotic index of the articular chondrocytes, total (articular chondrocytes; sophoricoside 80 mg/kg/day): 6.183 ± 0.738 %
